Experiments:
Format in all cases: cell-based, human
[1] = test system: MEXF 989 patient-derived melanoma cells; assay: Colony outgrowth assay, patient-derived melanoma MEXF 989; conditions: for Response (sensitive/resistant): colony outgrowth, melanoma MEXF 989 (resistant model 2), by IC70 criteria
Protocol: (§1) Single cell suspensions of patient-derived tumour xenografts (maintained in nude mice) were prepared. For colony outgrowth assays, cells were plated in soft agar in 24-well plates according to the assay introduced by Hamburger & Salmon (Primary bioassay of human tumour stem cells, Science, 1977, 197:461-463). 2×10^4-6×10^4 cells in 0.2 mL medium containing 0.4% agar were plated out on a bottom layer of 0.75% agar. Test compounds were applied in 0.2 mL culture medium. Every 24-well plate contained untreated controls and samples in triplicates. Cultures were incubated at 37° C. and 7.5% CO2 for 5-28 days. 24 hours prior to analysis, vital colonies were stained with a solution of metabolizable tetrazolium salt (Alley M C et al, Life Sci. 1982, 31:3071-3078) and were counted with an automatic image analysis system (Omnicon 3600, Biosys GmbH).
(§2) Relative drug effects were expressed by the ratio of the mean number of colonies in the treated wells and the control wells. IC70-values were determined by plotting compound concentrations versus relative colony counts.

[2] = test system: MEXF 276 patient-derived melanoma cells; assay: Colony outgrowth assay, patient-derived melanoma MEXF 276; set-up: key to Response (sensitive/resistant): BAL27862-sensitive tumour cells were those that had IC70 values in the low nanomolar range; BAL27862-resistant tumour cells had IC70 values >600 nanomolar; conditions: for Response (sensitive/resistant): colony outgrowth, melanoma MEXF 276 (resistant model 1), by IC70 criteria
Protocol: as §1, §2

[3] = test system: GXF 97 patient-derived gastric tumour cells; assay: Colony outgrowth assay, patient-derived gastric tumour GXF 97; set-up: key to Response (sensitive/resistant): BAL27862-sensitive tumour cells were those that had IC70 values in the low nanomolar range; BAL27862-resistant tumour cells had IC70 values >600 nanomolar; conditions: for Response (sensitive/resistant): colony outgrowth, Gastric GXF 97, by IC70 criteria
Protocol: as §1, §2

[4] = test system: GXF 251 patient-derived gastric tumour cells; assay: Colony outgrowth assay, patient-derived gastric tumour GXF 251; set-up: key to Response (sensitive/resistant): BAL27862-sensitive tumour cells were those that had IC70 values in the low nanomolar range; BAL27862-resistant tumour cells had IC70 values >600 nanomolar; conditions: for Response (sensitive/resistant): colony outgrowth, Gastric GXF 251, by IC70 criteria
Protocol: as §1, §2

[5] = test system: HeLa cervical cancer cells; assay: Immunofluorescent staining of microtubules in cultured cells; conditions: 24 hours treatment with 50 nM, anti-alpha-tubulin staining
Protocol: (§3) A549 human non-small cell lung cancer (NSCLC, ATCC reference number CCL-185) cells, HeLa cervical cancer cells (ATCC reference number CCL-2) and SKBR3 breast carcinoma cells (ATCC reference number HTB-30) were seeded at densities of 50% on round microscope coverslips and cultured for 24 hours in RPMI-1640 containing 10% FCS (also referred to as FBS) at 37° C., 5% CO2. Compounds to be tested were dissolved in DMSO. The cell culture medium was replaced with medium containing the diluted compound(s) (paclitaxel, vinblastine, colchicine and nocodazole were purchased from Sigma-Aldrich) or vehicle. After treatment for the times indicated in the Brief Description of the Figures, coverslips were washed and cells were fixed in methanol/acetone (1:1) for 5 minutes at room temperature and subsequently incubated in blocking buffer (0.5% BSA and 0.1% TX-100 in PBS) for 30 minutes at room temperature. Specimens were then incubated with anti-alpha-tubulin antibody (Sigma, 1:2000) for 1 hour at room temperature in blocking buffer. After several washing steps cells were incubated with AlexaFluor-488 goat-anti-mouse IgG (Molecular Probes, 1:3000) for 1 hour at room temperature followed by several washing steps with blocking buffer. Specimens were then mounted with ProLong Gold antifade (Molecular Probes), sealed with nail polish and examined with a Leica immunofluorescence microscope. Images were captured with a cooled CCD-camera and processed by ImageJ software.

A549 NSCLC cells = assay: as above; conditions: for Microtubule phenotype, combination treatment: colchicine; for Microtubule phenotype: A549, 24 hours treatment, mitotic or G2/M arrested cells, anti-alpha-tubulin staining, BAL27862 50 nM, Compound B 80 nM, Compound C 20 nM
Protocol: as §3

[6] = test system: SKBR3 breast cancer cells; assay: as above; conditions: SKBR3, 24 hours treatment with 50 nM, anti-alpha-tubulin staining
Protocol: as §3

[7] = test system: MEXF 1341 patient-derived melanoma cells; assay: Colony outgrowth assay, patient-derived melanoma MEXF 1341; set-up: key to Response (sensitive/resistant): BAL27862-sensitive tumour cells were those that had IC70 values in the low nanomolar range; BAL27862-resistant tumour cells had IC70 values >600 nanomolar; conditions: for Response (sensitive/resistant): colony outgrowth, melanoma MEXF 1341, by IC70 criteria
Protocol: as §1, §2

[8] = test system: LXFE211 patient-derived lung cancer cells; assay: Colony outgrowth assay, patient-derived lung cancer LXFE211; set-up: key to Response (sensitive/resistant): BAL27862-sensitive tumour cells were those that had IC70 values in the low nanomolar range; BAL27862-resistant tumour cells had IC70 values >600 nanomolar; conditions: for Response (sensitive/resistant): colony outgrowth, Lung LXFE211, by IC70 criteria
Protocol: as §1, §2

[9] = test system: LXFE397 patient-derived lung cancer cells; assay: Colony outgrowth assay, patient-derived lung cancer LXFE397
Protocol: as §1, §2

SMILES: N#CCCNc1nonc1-c1nc2ccccc2n1CC(=O)c1ccc(N)cc1 [BAL27862, 3-(4-{1-[2-(4-Amino-phenyl)-2-oxo-ethyl]-1H-benzoimidazol-2-yl}-furazan-3-ylamino)-propionitrile]
- IC70 ([1]; 70% growth inhibition versus controls, melanoma MEXF 989): >3.5 µM
- IC70 ([2]; 70% growth inhibition versus controls, melanoma MEXF 276): >3.5 µM
- IC70 ([3]; 70% growth inhibition versus controls, Gastric GXF 97): >3.5 µM
- Response (sensitive/resistant) [3]: resistant (BAL27862-resistant tumour cells had IC70 values >600 nanomolar)
- IC70 ([4]; 70% growth inhibition versus controls, Gastric GXF 251): 0.485 µM
- Response (sensitive/resistant) [4]: sensitive
- Microtubule phenotype [5]: highly reproducible and distinct microtubule phenotype
- Microtubule phenotype, combination treatment (A549 NSCLC cells; A549, 24 hours BAL27862 with the final 4 hours including vinblastine, paclitaxel or nocodazole): no impact on the observed microtubule phenotype
- Microtubule phenotype (A549 NSCLC cells): multiple dot-like structures
- Microtubule phenotype (A549 NSCLC cells; listed as compound A): highly reproducible and distinct microtubule phenotype
- Microtubule phenotype, combination treatment (A549 NSCLC cells; A549, 24 hours vinblastine, paclitaxel or nocodazole with the final 4 hours including BAL27862): disruption of the microtubule structures
- Microtubule phenotype [6]: highly reproducible and distinct microtubule phenotype
- IC70 ([7]; 70% growth inhibition versus controls, melanoma MEXF 1341): 0.025 µM
- Response (sensitive/resistant) [7]: sensitive
- IC70 ([8]; 70% growth inhibition versus controls, Lung LXFE211): 0.021 µM
- Response (sensitive/resistant) [8]: sensitive
- IC70 ([9]; 70% growth inhibition versus controls, Lung LXFE397): >3.5 µM
- Response (sensitive/resistant) ([9]; colony outgrowth, Lung LXFE397, by IC70 criteria): resistant (BAL27862-resistant tumour cells had IC70 values >600 nanomolar)

SMILES: Nc1ccc(C(=O)Cn2c(-c3nonc3N)nc3ccccc32)cc1 [Compound B, 2-[2-(4-Amino-furazan-3-yl)-benzoimidazol-1-yl]-1-(4-amino-phenyl)-ethanone]
- Microtubule phenotype (A549 NSCLC cells): highly reproducible and distinct microtubule phenotype

SMILES: N#CCCNc1nonc1-c1nc2ccccc2n1CC(=O)c1ccc(N)nc1 [Compound C, 3-(4-{1-[2-(6-Amino-pyridin-3-yl)-2-oxo-ethyl]-1H-benzoimidazol-2-yl}-furazan-3-ylamino)-propionitrile]
- Microtubule phenotype (A549 NSCLC cells): highly reproducible and distinct microtubule phenotype

SMILES: COc1cc2c(c(OC)c1OC)-c1ccc(OC)c(=O)cc1[C@@H](NC(C)=O)CC2 [colchicine, reference compound]
- Microtubule phenotype (A549 NSCLC cells): mitotic microtubule phenotypes characteristic of these agents

SMILES: COC(=O)Nc1nc2ccc(C(=O)c3cccs3)cc2[nH]1 [nocodazole, reference compound]
- Microtubule phenotype (A549 NSCLC cells): mitotic microtubule phenotypes characteristic of these agents

SMILES: CC(=O)O[C@H]1C(=O)[C@@]2(C)[C@H]([C@H](OC(=O)c3ccccc3)[C@]3(O)C[C@H](OC(=O)[C@H](O)[C@@H](NC(=O)c4ccccc4)c4ccccc4)C(C)=C1C3(C)C)[C@]1(OC(C)=O)CO[C@@H]1C[C@@H]2O [paclitaxel, reference compound]
- Response (sensitive/resistant) [1]: resistant (BAL27862-resistant tumour cells had IC70 values >600 nanomolar)
- Response (sensitive/resistant) [2]: resistant (BAL27862-resistant tumour cells had IC70 values >600 nanomolar)
- Response (sensitive/resistant) [3]: resistant (BAL27862-resistant tumour cells had IC70 values >600 nanomolar)
- Response (sensitive/resistant) [4]: resistant (BAL27862-resistant tumour cells had IC70 values >600 nanomolar)
- Microtubule phenotype (A549 NSCLC cells): mitotic microtubule phenotypes characteristic of these agents
- Response (sensitive/resistant) [7]: resistant (BAL27862-resistant tumour cells had IC70 values >600 nanomolar)
- Response (sensitive/resistant) [8]: esistant

SMILES: CC[C@]1(O)C[C@@H]2CN(CCc3c([nH]c4ccccc34)[C@@](C(=O)OC)(c3cc4c(cc3OC)N(C)[C@H]3[C@@](O)(C(=O)OC)[C@H](OC(C)=O)[C@]5(CC)C=CCN6CC[C@]43[C@@H]65)C2)C1 [vinblastine, reference compound]
- Response (sensitive/resistant) [1]: resistant (BAL27862-resistant tumour cells had IC70 values >600 nanomolar)
- Response (sensitive/resistant) [2]: sensitive
- Response (sensitive/resistant) [3]: sensitive
- Response (sensitive/resistant) [4]: sensitive
- Microtubule phenotype (A549 NSCLC cells): mitotic microtubule phenotypes characteristic of these agents
- Response (sensitive/resistant) [7]: sensitive
- Response (sensitive/resistant) [8]: sensitive

From US9366682B2, “Use of stathmin as a biomarker of drug response to furazanobenzimidazoles” (BASILEA PHARMACEUTICA AG, priority 2011, dated 2016)
